Source: article PMC10653547, “Synergistic effect of two antimicrobial peptides, BP203 and MAP-0403 J-2 with conventional antibiotics against colistin-resistant Escherichia coli and Klebsiella pneumoniae clinical isolates” (PLOS ONE, 2023)

What was measured:
[1] = system: colistin-resistant K. pneumoniae clinical isolates; assay: Disk diffusion antimicrobial susceptibility testing (CLSI); assay type: cell-based, Klebsiella pneumoniae; for Interpreted results of disk diffusion: key: R: resistant; I: intermediate; SDD: susceptible-dose dependent; S: sensitive
[2] = system: colistin-resistant E. coli clinical isolates; assay: Checkerboard assay for synergy testing; assay type: cell-based, Escherichia coli; details: checkerboard Ceftazidime+MAP-0403 J-2
Summary of the method: (§1)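 Two-fold serial dilutions of peptide and antibiotic, alone and in combination, in CAMHB against colistin-resistant clinical isolates at 5 × 10^5 CFU/mL, 37 °C for 20–24 h. MIC is the lowest concentration with no growth; FICI = sum of each agent's MIC in combination divided by its MIC alone.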

[3] = system: colistin-resistant E. coli clinical isolates; assay: Disk diffusion antimicrobial susceptibility testing (CLSI); assay type: cell-based, Escherichia coli
[4] = system: colistin-resistant K. pneumoniae clinical isolates; assay: Checkerboard assay for synergy testing; assay type: cell-based, Klebsiella pneumoniae; details: checkerboard Ceftazidime+MAP-0403 J-2
Summary of the method: as §1

Structure (SMILES): CC(C)(O/N=C(\C(=O)N[C@@H]1C(=O)N2C(C(=O)[O-])=C(C[n+]3ccccc3)CS[C@H]12)c1csc(N)n1)C(=O)O [CAZ, ceftazidime]
- Interpreted results of disk diffusion ([1]; KP-01): R
- Interpreted results of disk diffusion ([1]; KP-02): R
- Interpreted results of disk diffusion ([1]; KP-03): R
- Interpreted results of disk diffusion ([1]; KP-04): R
- Interpreted results of disk diffusion ([1]; KP-05): R
- Interpreted results of disk diffusion ([1]; KP-06): R
- Interpreted results of disk diffusion ([1]; KP-07): R
- Interpreted results of disk diffusion ([1]; KP-08): R
- Interpreted results of disk diffusion ([1]; KP-09): R
- Interpreted results of disk diffusion ([1]; KP-10): R
- %Resistance ([1]; ten K. pneumoniae isolates, disk diffusion): 100%
- MIC alone ([2]; isolate EC-01): 8 µg/mL
- MIC combination ([2]; isolate EC-01): 0.5 µg/mL
- MIC alone ([2]; isolate EC-02): 16 µg/mL
- MIC combination ([2]; isolate EC-02): 4 µg/mL
- MIC alone ([2]; isolate EC-03): 16 µg/mL
- MIC combination ([2]; isolate EC-03): 1 µg/mL
- MIC alone ([2]; isolate EC-04): 4 µg/mL
- MIC combination ([2]; isolate EC-04): 1 µg/mL
- MIC alone ([2]; isolate EC-05): 1 µg/mL
- MIC combination ([2]; isolate EC-05): 0.0625 µg/mL
- MIC alone ([2]; isolate EC-06): 16 µg/mL
- MIC combination ([2]; isolate EC-06): 4 µg/mL
- MIC alone ([2]; isolate EC-07): 16 µg/mL
- MIC combination ([2]; isolate EC-07): 2 µg/mL
- MIC alone ([2]; isolate EC-08): 1 µg/mL
- MIC combination ([2]; isolate EC-08): 0.25 µg/mL
- MIC alone ([2]; isolate EC-09): 32 µg/mL
- MIC combination ([2]; isolate EC-09): 4 µg/mL
- MIC alone ([2]; isolate EC-10): 16 µg/mL
- MIC combination ([2]; isolate EC-10): 2 µg/mL
- Interpreted results of disk diffusion ([3]; EC-01): R
- Interpreted results of disk diffusion ([3]; EC-02): I
- Interpreted results of disk diffusion ([3]; EC-03): R
- Interpreted results of disk diffusion ([3]; EC-04): R
- Interpreted results of disk diffusion ([3]; EC-05): S
- Interpreted results of disk diffusion ([3]; EC-06): R
- Interpreted results of disk diffusion ([3]; EC-07): I
- Interpreted results of disk diffusion ([3]; EC-08): S
- Interpreted results of disk diffusion ([3]; EC-09): I
- Interpreted results of disk diffusion ([3]; EC-10): S
- %Resistance ([3]; ten E. coli isolates, disk diffusion): 40%
- MIC combination ([4]; isolate KP-01): 16 µg/mL
- MIC combination ([4]; isolate KP-02): 16 µg/mL
- MIC combination ([4]; isolate KP-03): 512 µg/mL
- MIC combination ([4]; isolate KP-04): 512 µg/mL
- MIC combination ([4]; isolate KP-05): 512 µg/mL
- MIC combination ([4]; isolate KP-06): 32 µg/mL
- MIC combination ([4]; isolate KP-07): 256 µg/mL
- MIC combination ([4]; isolate KP-08): 512 µg/mL
- MIC combination ([4]; isolate KP-09): 512 µg/mL
- MIC combination ([4]; isolate KP-10): 32 µg/mL
